Data as given in patent EP4782444A1, “CRYSTAL FORM OF PYRIMIDINE ANILINE COMPOUND, PREPARATION METHOD, AND USE” (TYK Medicines, Inc., priority 2023, dated 2025).
In brackets after ≈: the same amount, converted by molar mass. Read-outs that look alike come from different tables or passages of the source.

Columns and labels:
[1] = Solid-state stability study (HPLC and XRPD analysis); format: physicochemical
[2] = in vivo; settings: rat, po, 30 mg/kg
Protocol: (§1) SD rats received a single oral gavage administration of citrate crystalline form I, mesylate crystalline form I, and free base crystalline form I, respectively. Blood samples were collected at various time points to determine drug concentrations in rat plasma post administration of tested substance and calculate PK-related parameters.
(§2) The prepared test sample solutions were analyzed by the analytical department of the present test facility using LC-MS/MS.
(§3) Animals were fasted (≥10 h) with free access to water from the day before dosing. On the test day, rats were weighed respectively, marked at the tail, and blank blood samples were collected before administration. Blood was collected via tail vein.
(§4) 0.1 mL of whole blood was collected into EDTA-Na2 anticoagulant tubes, inverted 3-4 times to mix well, centrifuged at 10,000 g, 4 °C for 5 min to separate plasma, and stored at - 80 °C until analysis. Blood was collected via tail vein.
(§5) Plasma samples were analyzed by the analytical department of the test facility using LC-MS/MS.

[3] = Pharmacokinetic study in rats, single oral gavage; settings: SD rats, 30 mpk
Protocol: as §1, §2, §3, §4, §5

[4] = 37 °C
[5] = test system: EGFR exon 20ins; settings: advanced non-small cell lung cancer; cited from earlier work
[6] = physchem

C=CC(=O)Nc1cc(Nc2ncc(C(=O)OC(C)C)c(-c3cn(C)c4ccccc34)n2)c(OC)cc1N(C)[C@@H]1[C@@H]2CN(C)C[C@@H]21 [Citrate crystalline form I]
Appearance ([1]; 25°C/60%RH, day 3): Unchanged | Crystalline Form ([1]; 25°C/60%RH, day 3, XRPD): Unchanged | Purity % ([1]; 25°C/60%RH, day 3, open vial): 98.68% | Appearance ([1]; 25°C/60%RH, day 7): Unchanged | Crystalline Form ([1]; 25°C/60%RH, day 7, XRPD): Unchanged | Purity % ([1]; 25°C/60%RH, day 7, open vial): 98.61% | Appearance ([1]; 25°C/95±5%RH, day 3): Unchanged | Crystalline Form ([1]; 25°C/95±5%RH, day 3, XRPD): Unchanged | Purity % ([1]; 25°C/95±5%RH, day 3, open vial): 98.66% | Appearance ([1]; 25°C/95±5%RH, day 7): Unchanged | Crystalline Form ([1]; 25°C/95±5%RH, day 7, XRPD): Unchanged | Purity % ([1]; 25°C/95±5%RH, day 7, open vial): 98.67% | Appearance ([1]; 40°C/75%RH, day 3): Unchanged | Crystalline Form ([1]; 40°C/75%RH, day 3, XRPD): Unchanged | Purity % ([1]; 40°C/75%RH, day 3, open vial): 98.66% | Appearance ([1]; 40°C/75%RH, day 7): Unchanged | Crystalline Form ([1]; 40°C/75%RH, day 7, XRPD): Unchanged | Purity % ([1]; 40°C/75%RH, day 7, open vial): 98.59% | Appearance ([1]; 60 °C, day 3): Unchanged | Crystalline Form ([1]; 60 °C, day 3, XRPD): Unchanged | Purity % ([1]; 60 °C, day 3, open vial): 98.68% | Appearance ([1]; 60 °C, day 7): Unchanged | Crystalline Form ([1]; 60 °C, day 7, XRPD): Unchanged | Purity % ([1]; 60 °C, day 7, open vial): 98.66% | Appearance ([1]; 80 °C, day 1): Unchanged | Crystalline Form ([1]; 80 °C, day 1, XRPD): Unchanged | Purity % ([1]; 80 °C, day 1, open vial): 98.71% | Appearance ([1]; 80 °C, day 3): Unchanged | Crystalline Form ([1]; 80 °C, day 3, XRPD): Unchanged | Purity % ([1]; 80 °C, day 3, open vial): 98.68% | Purity % ([1]; day 0 (baseline before storage), mean of 3 parallel experiments): 98.74% | crystalline form and chemical purity ([1]; under the five storage conditions): did not change significantly | AUC(0-t) [2]: 1700 ng·h/mL | Cmax [2]: 126 ng/mL | Tmax [2]: 5 h | half-life [2]: 3.01 h | in vivo exposure in rats compared with free base crystalline form I [3]: higher | Solubility ([4]; FaSSIF, 0.5 h, 30 min): >5000 µg/mL | Solubility ([4]; FaSSIF, 2 h, 120 min): > 5000 µg/mL | Solubility ([4]; FaSSIF, 24 h, 1440 min): 3990 µg/mL | Solubility ([4]; FeSSIF, 0.5 h, 30 min): > 5020 µg/mL | Solubility ([4]; FeSSIF, 2 h, 120 min): > 5020 µg/mL | Solubility ([4]; FeSSIF, 24 h, 1440 min): > 5020 µg/mL | Solubility ([4]; H2O, 0.5 h, 30 min): 1910 µg/mL | Solubility ([4]; H2O, 2 h, 120 min): 1990 µg/mL | Solubility ([4]; H2O, 24 h, 1440 min): 2440 µg/mL | Solubility ([4]; SGF, 0.5 h, 30 min): > 5040 µg/mL | Solubility ([4]; SGF, 2 h, 120 min): > 5040 µg/mL | Solubility ([4]; SGF, 24 h, 1440 min): > 5040 µg/mL

C=CC(=O)Nc1cc(Nc2nccc(Nc3cc(Cl)c(F)cc3C(C)(C)O)n2)c(OC)cc1N1CC[C@@H](N(C)C)C1 [DZD9008]
objective response rate [5]: 40%

C=CC(=O)Nc1cc(Nc2ncc(C(=O)OC(C)C)c(-c3cn(C)c4ccccc34)n2)c(OC)cc1N(C)[C@@H]1[C@@H]2CN(C)C[C@@H]21 [Free base crystalline form I]
Solubility ([6]; 1,4-dioxane): < 270 µg/mL | Solubility ([6]; acetone): 2220 to 4440 µg/mL (≈ 3.64 to 7.28 mM) | Solubility ([6]; acetonitrile): 930 to 1010 µg/mL (≈ 1.53 to 1.66 mM) | Solubility ([6]; cyclohexane): < 330 µg/mL | Solubility ([6]; dce): 61800 to 124000 µg/mL (≈ 101 to 203 mM) | Solubility ([6]; dcm): > 107000 µg/mL | Solubility ([6]; dmso): 2600 to 2930 µg/mL (≈ 4.26 to 4.81 mM) | Solubility ([6]; ethanol): < 300 µg/mL | Solubility ([6]; ethyl acetate): < 290 µg/mL | Solubility ([6]; heptane): < 300 µg/mL | Solubility ([6]; ipac): < 300 µg/mL | Solubility ([6]; isopropanol): < 350 µg/mL | Solubility ([6]; mek): 2780 to 4440 µg/mL (≈ 4.56 to 7.28 mM) | Solubility ([6]; meoh): < 400 µg/mL | Solubility ([6]; mtbe): < 330 µg/mL | Solubility ([6]; nmp): 18200 to 27400 µg/mL (≈ 29.9 to 44.9 mM) | Solubility ([6]; thf): 2550 to 3190 µg/mL (≈ 4.18 to 5.23 mM) | Solubility ([6]; water): < 270 µg/mL | AUC0-last ([3]; plasma, 30 mg/kg): 1122.05 ng·h/mL | Cmax ([3]; plasma, 30 mg/kg): 126.5 ng/mL | T1/2 ([3]; plasma, 30 mg/kg): 2.19 h | Tmax ([3]; plasma, 30 mg/kg): 4 h | Solubility ([4]; FaSSIF, 0.5 h, 30 min): 130 µg/mL (≈ 0.213 mM) | Solubility ([4]; FaSSIF, 2 h, 120 min): 130 µg/mL (≈ 0.213 mM) | Solubility ([4]; FaSSIF, 24 h, 1440 min): 180 µg/mL (≈ 0.295 mM) | Solubility ([4]; FeSSIF, 0.5 h, 30 min): 3530 µg/mL (≈ 5.79 mM) | Solubility ([4]; FeSSIF, 2 h, 120 min): > 5020 µg/mL | Solubility ([4]; FeSSIF, 24 h, 1440 min): > 5020 µg/mL | Solubility ([4]; H2O, 0.5 h, 30 min): 10 µg/mL (≈ 0.0164 mM) | Solubility ([4]; H2O, 2 h, 120 min): 10 µg/mL (≈ 0.0164 mM) | Solubility ([4]; H2O, 24 h, 1440 min): 10 µg/mL (≈ 0.0164 mM) | Solubility ([4]; SGF, 0.5 h, 30 min): >5000 µg/mL | Solubility ([4]; SGF, 2 h, 120 min): > 5000 µg/mL | Solubility ([4]; SGF, 24 h, 1440 min): > 5000 µg/mL
